# Publication PMC12406256, “Food Additives Inhibit Intestinal Drug Transporters but Have Limited Effect on In Vitro Drug Permeability” (Molecular Pharmaceutics, 2025)
# pIC50, pKi: −log10 of the molar value. Like-named read-outs stand apart in the source and are kept apart here.
# What was measured:
# OATP2B1 [1] = test system: OATP2B1; parameters: method as in Zou et al.; conditions: 25 mg/kg; P-gp-deficient mice; ref Zou et al.; cited from earlier work
# OATP2B1 [2] = biological target: T1, OATP2B1 (Homo sapiens, UniProt O94956); conditions: previously characterized inhibitors, ref previous studies, cited from earlier work; for pKi: read-out: K i, OATP2B1
# T1 construct: expressed in transfected cells; host or cells: HEK293 cells (ATCC) transduced with recombinant OATP2B1 baculovirus
# T1 sequence (O94956 1-709): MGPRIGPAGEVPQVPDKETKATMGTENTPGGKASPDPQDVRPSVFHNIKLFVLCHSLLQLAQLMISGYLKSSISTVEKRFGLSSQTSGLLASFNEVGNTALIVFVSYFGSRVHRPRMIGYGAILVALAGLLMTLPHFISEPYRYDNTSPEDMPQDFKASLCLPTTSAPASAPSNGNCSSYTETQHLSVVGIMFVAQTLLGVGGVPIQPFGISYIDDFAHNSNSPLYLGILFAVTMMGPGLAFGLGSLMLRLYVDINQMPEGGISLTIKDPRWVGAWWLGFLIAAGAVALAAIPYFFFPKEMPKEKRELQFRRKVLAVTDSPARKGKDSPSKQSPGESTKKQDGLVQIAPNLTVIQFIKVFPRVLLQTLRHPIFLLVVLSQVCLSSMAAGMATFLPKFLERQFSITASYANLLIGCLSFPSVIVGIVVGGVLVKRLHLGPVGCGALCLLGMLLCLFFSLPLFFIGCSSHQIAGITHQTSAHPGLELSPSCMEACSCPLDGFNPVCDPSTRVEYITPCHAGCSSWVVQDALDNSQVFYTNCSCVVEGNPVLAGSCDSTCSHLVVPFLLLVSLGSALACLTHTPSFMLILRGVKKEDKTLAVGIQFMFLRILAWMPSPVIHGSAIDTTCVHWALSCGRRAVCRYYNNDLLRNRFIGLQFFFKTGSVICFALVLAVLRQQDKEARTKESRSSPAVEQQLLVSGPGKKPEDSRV
# Caco-2 cells [3] = assay: in vitro; conditions: for effect on sulfasalazine permeability (P app): Caco-2
# Method: (§1) Caco-2 cells were cultured on 12-well Transwell polycarbonate membrane inserts with a 0.4 μm pore size (Corning Incorporated, Kennebunk, ME) at 37 °C and 5% CO2 for 21–24 days prior to the experiment as described in Hubatsch et al. The culture medium (DMEM, 10% FBS, 1% MEM nonessential amino acids, 100 U/mL penicillin–streptomycin) was changed every second day. Transepithelial electrical resistance (TEER) was measured before and after the permeability assay with a Millicell-ERS electrode (Millipore, Bedford, MA) attached to an epithelial volt ohm meter (EVOM, World Precision Instruments, Sarasota, FL). The permeability assay was performed according to a previously published protocol. […] Sulfasalazine is a substrate of BCRP and OATP2B1. , The DMSO concentration was 0.45–1.5%. Before the experiment, inserts were washed and preincubated in the transport buffer for 20 min shaking at 37 °C. Sulfasalazine and LY permeability was measured in the apical to basolateral direction at five time points (20, 40, 60, 90, and 120 min) and, additionally, in the basolateral to apical direction to calculate the efflux ratio. […] […] LY (250 μM) was added on the donor side of all inserts to measure the integrity of the cell monolayer. Before analysis, samples were centrifuged at 2755g for 30 min, and donor solution and mass balance samples were diluted 1:100. LY fluorescence was measured with a Varioskan LUX microplate reader (Thermo Fisher Scientific) at 430 nm excitation and 538 nm emission. Sulfasalazine was analyzed with ultra-performance liquid chromatography (UPLC) using a Syncronis C18 column (1.7 μm particle size, 50 × 2.1 mm + 0.2 μm Waters online filter) (Thermo Fisher Scientific) coupled with Waters Acquity UPLC interfaced with a PDA detector both controlled by the Waters Empower software version 3. The UPLC was operated in gradient mode at 354 nm. Solvents were 0.015 M phosphate buffer pH 2 (A), acetonitrile (B), 1:1 acetonitrile/methanol (strong needle wash), and 20% acetonitrile (weak needle wash). Column temperature was 30 °C, injection volume was 10 μL, retention time was 1.46 min, and flow rate was 0.5 mL/min. The gradient was 25% B → 70% B (0–3 min), 70% B → 25% B (3.00–3.01 min), and 25% B (3.01–4 min). The data were collected for the first 180 s of each UPLC run.
# (§2) In the Caco-2 permeability assay, the apparent permeability (P app) of sulfasalazine was calculated using the following equation: Papp=(dQ/dt)(1/A×C0) where dQ/dt is the rate of permeation across the cells (nmol/min), A is the surface area of the filter (1.12 cm^2), and C 0 is the initial concentration in the donor chamber (μM). The efflux ratio of sulfasalazine was calculated by dividing the P app in the basolateral to the apical direction by the P app in the apical to basolateral direction. The TEER for each cell insert was calculated before and after the experiment by multiplying the mean resistance of three measurements by the surface area of the filter (1.12 cm^2). Mass balance was calculated by dividing the […]. All experiments were done in triplicate wells, and the IC50 and Caco-2 permeability assays were repeated three times.
# MRP2 [4] = biological target: T2, MRP2 (Homo sapiens, UniProt Q92887); parameters: method as in previous studies; conditions: previously characterized inhibitors; ref previous studies; read-out: IC50 (95% CI), MRP2; cited from earlier work
# T2 construct: made in house; host or cells: Spodoptera frugiperda Sf9 cells, crude membrane vesicles
# T2 sequence (Q92887 whole entry): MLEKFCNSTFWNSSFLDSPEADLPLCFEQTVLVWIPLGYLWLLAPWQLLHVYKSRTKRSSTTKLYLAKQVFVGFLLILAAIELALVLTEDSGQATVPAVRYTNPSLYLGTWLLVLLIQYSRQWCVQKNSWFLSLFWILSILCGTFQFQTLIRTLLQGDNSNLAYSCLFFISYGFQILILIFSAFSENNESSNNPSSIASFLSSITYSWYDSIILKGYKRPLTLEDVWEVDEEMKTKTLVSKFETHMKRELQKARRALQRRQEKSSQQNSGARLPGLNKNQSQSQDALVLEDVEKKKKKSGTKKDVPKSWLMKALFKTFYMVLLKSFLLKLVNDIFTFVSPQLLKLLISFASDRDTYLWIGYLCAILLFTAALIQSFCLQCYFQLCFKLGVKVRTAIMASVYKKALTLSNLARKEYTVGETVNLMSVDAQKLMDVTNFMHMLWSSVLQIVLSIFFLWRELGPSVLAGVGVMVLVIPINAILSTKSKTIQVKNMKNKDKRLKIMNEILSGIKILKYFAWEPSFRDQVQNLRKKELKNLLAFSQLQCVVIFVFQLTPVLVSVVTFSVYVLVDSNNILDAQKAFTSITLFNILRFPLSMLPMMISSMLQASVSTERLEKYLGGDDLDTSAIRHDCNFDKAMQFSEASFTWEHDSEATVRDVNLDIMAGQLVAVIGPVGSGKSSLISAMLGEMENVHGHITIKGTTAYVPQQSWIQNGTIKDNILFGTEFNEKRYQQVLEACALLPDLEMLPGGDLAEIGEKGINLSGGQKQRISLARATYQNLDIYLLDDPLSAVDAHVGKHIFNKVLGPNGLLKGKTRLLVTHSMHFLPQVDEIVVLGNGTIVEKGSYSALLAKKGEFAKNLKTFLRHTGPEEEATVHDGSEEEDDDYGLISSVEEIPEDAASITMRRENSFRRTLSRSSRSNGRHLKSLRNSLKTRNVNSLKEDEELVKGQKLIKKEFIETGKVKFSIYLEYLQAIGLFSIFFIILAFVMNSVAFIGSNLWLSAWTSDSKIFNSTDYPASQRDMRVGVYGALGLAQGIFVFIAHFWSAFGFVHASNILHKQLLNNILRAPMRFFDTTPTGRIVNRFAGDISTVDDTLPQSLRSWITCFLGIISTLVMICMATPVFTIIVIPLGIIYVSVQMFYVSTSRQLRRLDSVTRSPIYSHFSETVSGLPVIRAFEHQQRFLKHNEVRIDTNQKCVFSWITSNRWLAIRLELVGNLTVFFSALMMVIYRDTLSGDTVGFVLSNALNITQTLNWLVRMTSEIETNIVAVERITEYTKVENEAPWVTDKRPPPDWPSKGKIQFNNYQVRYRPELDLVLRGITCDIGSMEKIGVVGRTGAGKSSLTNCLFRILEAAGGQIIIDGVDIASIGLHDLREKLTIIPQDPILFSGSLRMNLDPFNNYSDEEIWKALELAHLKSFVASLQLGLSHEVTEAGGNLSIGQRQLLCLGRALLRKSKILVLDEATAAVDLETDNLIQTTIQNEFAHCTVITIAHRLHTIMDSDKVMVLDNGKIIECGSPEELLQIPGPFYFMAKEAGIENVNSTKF
# BCRP [5] = biological target: T3, BCRP (Homo sapiens, UniProt Q9UNQ0); conditions: read-out: IC50 (95% CI), BCRP; previously characterized inhibitors; ref previous studies; cited from earlier work
# T3 sequence (Q9UNQ0 1-655): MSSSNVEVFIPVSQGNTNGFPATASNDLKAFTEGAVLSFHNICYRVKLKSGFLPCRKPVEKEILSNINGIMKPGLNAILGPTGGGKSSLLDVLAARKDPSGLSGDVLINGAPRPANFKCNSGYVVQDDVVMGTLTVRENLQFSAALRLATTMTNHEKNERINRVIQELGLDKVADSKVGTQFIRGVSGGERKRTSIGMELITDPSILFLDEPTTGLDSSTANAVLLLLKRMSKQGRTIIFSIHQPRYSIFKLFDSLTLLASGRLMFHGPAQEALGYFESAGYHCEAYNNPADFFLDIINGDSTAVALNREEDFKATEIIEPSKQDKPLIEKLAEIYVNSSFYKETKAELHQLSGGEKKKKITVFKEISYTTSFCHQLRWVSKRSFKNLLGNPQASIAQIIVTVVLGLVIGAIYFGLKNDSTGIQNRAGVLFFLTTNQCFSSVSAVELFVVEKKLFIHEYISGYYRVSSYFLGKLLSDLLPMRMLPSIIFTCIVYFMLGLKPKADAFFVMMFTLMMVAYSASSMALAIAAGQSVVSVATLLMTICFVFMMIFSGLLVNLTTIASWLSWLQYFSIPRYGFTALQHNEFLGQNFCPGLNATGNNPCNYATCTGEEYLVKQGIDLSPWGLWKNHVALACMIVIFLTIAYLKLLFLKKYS
# Caco-2 cells [6] = test system: Caco-2 cells; parameters: method as in not given; conditions: ref not given; cited from earlier work
# [7] = parameters: method as in not given; conditions: rats; ref not given; cited from earlier work
# OATP2B1 [8] = biological target: T1, OATP2B1; assay: HEK293 uptake assay, OATP2B1 (5-carboxyfluorescein substrate); assay type: cell-based; conditions: human, HEK293 cells transduced with recombinant OATP2B1 baculovirus, pH 6, probe 5-carboxyfluorescein 2 μM, food additive 50 μM, n = 1, read-out: inhibition of OATP2B1-mediated uptake
# Method: The inhibition of OATP2B1 was studied using a HEK293 cell-based uptake assay. HEK293 cells were cultured in DMEM supplemented with 10% FBS at 37 °C and 5% CO2 and seeded at 22,500 cells/well on 96-well plates coated with 0.1 mg/mL poly-D-lysine. After 24 h, the medium was replaced with a transduction mix (DMEM with 10% FBS, 5 mM sodium butyrate, and recombinant OATP2B1 or enhanced yellow fluorescent protein [eYFP, negative control] baculoviruses). The baculoviruses were produced as previously described. The uptake assay was performed after approximately 48 h. […] Test solutions also contained the substrate. Cells were washed with warm transport buffer and preincubated at 37 °C. Preincubation solutions were replaced with test solutions and incubated at 37 °C with shaking at 250 rpm. Transport was terminated by aspirating the test solution and washing the wells with an ice-cold transport buffer (150 μL) three times. Wells were left to dry, and cells were lysed with 0.1 M NaOH. […] Total protein concentration was measured from six random wells with a Pierce Coomassie (Bradford) Assay kit (Thermo Fisher Scientific) to ensure a similar protein concentration in the OATP2B1 and eYFP wells.
# MRP2 [9] = biological target: T2, MRP2; assay: Vesicular transport assay, MRP2 (CDCF substrate); assay type: biochemical; conditions: food additive 50 μM; CDCF 5 μM; n = 1
# Method: Transport inhibition by 22 food additives was tested with Spodoptera frugiperda (Sf9) derived crude membrane vesicles expressing BCRP, MRP2, or P-gp produced in-house. […] Vesicles (50 μg total protein/well) were diluted in an assay buffer (40 mM MOPS–Tris pH 7.0, 60 mM KCl, and 6 mM MgCl2) with the substrate, and food additives (final concentration of 50 μM) in DMSO were added to the mixture. After preincubation, either the assay buffer or Mg-ATP solution (final concentration 4 mM) was added to the plate to start the reaction. The plate was incubated at 37 °C, and the reaction was stopped with an ice-cold washing mixture (40 mM MOPS-Tris pH 7.0 and 70 mM KCl). Samples were moved to a MultiScreenHTS-FB Plate Glass fiber 1.0 μm/0.65 μm Durapore filter plate (Millipore, USA), and the wells were washed five times with the ice-cold washing mixture. For BCRP and MRP2, the fluorescent substrate was eluted from the filters with 100 μL 0.1 M NaOH. […] The amount of the substrate accumulated into the vesicles was measured by fluorescent detection using a Varioskan LUX microplate reader (Thermo Fisher Scientific, Finland) (Table ).
# (§3) For the efflux transporters, the relative transport was calculated as relativetransport(%ofcontrol)=transportinh,ATP−transportinh,noATP/transportDMSO,ATP−transportDMSO,noATP×100% where transportinh,ATP and transportinh,no ATP are the transport rates in the presence of food additives with or without ATP, respectively, and transportDMSO,ATP and transportDMSO,no ATP are the corresponding transport rates in the presence of the vehicle (DMSO) with or without ATP.
# (§4) The half-maximal inhibitory concentrations (IC50) were calculated with GraphPad Prism version 9.0.2 (GraphPad Software, San Diego, CA) using nonlinear regression that fits the data to a four-parameter dose–response curve: relativetransport=minimum+maximum−minimum/1+([I]/IC50)^h where minimum and maximum describe the plateaus of minimal and maximal relative transport (%), [I] is the concentration of inhibitor, and h is the Hill slope, which describes the steepness of the slope.
# BCRP [10] = biological target: T3, BCRP; assay: Vesicular transport assay, BCRP (Lucifer yellow substrate); assay type: biochemical; parameters: made in house; host or cells: Spodoptera frugiperda Sf9 cells, crude membrane vesicles; conditions: Sf9-derived crude membrane vesicles expressing BCRP, pH 7, probe Lucifer yellow 50 μM, food additive 50 μM, n = 1, read-out: inhibition of BCRP substrate accumulation
# Method: (§5) Transport inhibition by 22 food additives was tested with Spodoptera frugiperda (Sf9) derived crude membrane vesicles expressing BCRP, MRP2, or P-gp produced in-house. […] Vesicles (50 μg total protein/well) were diluted in an assay buffer (40 mM MOPS–Tris pH 7.0, 60 mM KCl, and 6 mM MgCl2) with the substrate, and food additives (final concentration of 50 μM) in DMSO were added to the mixture. After preincubation, either the assay buffer or Mg-ATP solution (final concentration 4 mM) was added to the plate to start the reaction. The plate was incubated at 37 °C, and the reaction was stopped with an ice-cold washing mixture (40 mM MOPS-Tris pH 7.0 and 70 mM KCl). Samples were moved to a MultiScreenHTS-FB Plate Glass fiber 1.0 μm/0.65 μm Durapore filter plate (Millipore, USA), and the wells were washed five times with the ice-cold washing mixture. For BCRP and MRP2, the fluorescent substrate was eluted from the filters with 100 μL 0.1 M NaOH. For LY samples, an equal volume of 0.1 M HCl was added to neutralize the samples before fluorescence measurement. The amount of the substrate accumulated into the vesicles was measured by fluorescent detection using a Varioskan LUX microplate reader (Thermo Fisher Scientific, Finland) (Table ). The accumulation into the P-gp vesicles was measured with high-performance liquid chromatography (HPLC) (Agilent 110 series, Agilent Technologies, USA) after lysis and elution of the vesicle contents with 100 μL 3:1 methanol/water + 0.1% formic acid. The column used was a Poroshell 120 EC-C18 with a size of 4.6 × 100 mm and 2.7 μm particle size. Eluent A was 0.1% formic acid, and eluent B was acetonitrile. The flow rate of eluent was 1 mL/min, and the injection volume of samples was 10 μL. […] The retention time for NMQ was around 2.5 min.
# as §3, §4
# P-gp = P-gp (Homo sapiens, UniProt P08183); assay: Vesicular transport assay, P-gp (N-methyl-quinidine substrate); conditions: food additive 50 μM; N-methyl-quinidine 2 μM; n = 1
# Chain of P-gp (P08183 whole entry): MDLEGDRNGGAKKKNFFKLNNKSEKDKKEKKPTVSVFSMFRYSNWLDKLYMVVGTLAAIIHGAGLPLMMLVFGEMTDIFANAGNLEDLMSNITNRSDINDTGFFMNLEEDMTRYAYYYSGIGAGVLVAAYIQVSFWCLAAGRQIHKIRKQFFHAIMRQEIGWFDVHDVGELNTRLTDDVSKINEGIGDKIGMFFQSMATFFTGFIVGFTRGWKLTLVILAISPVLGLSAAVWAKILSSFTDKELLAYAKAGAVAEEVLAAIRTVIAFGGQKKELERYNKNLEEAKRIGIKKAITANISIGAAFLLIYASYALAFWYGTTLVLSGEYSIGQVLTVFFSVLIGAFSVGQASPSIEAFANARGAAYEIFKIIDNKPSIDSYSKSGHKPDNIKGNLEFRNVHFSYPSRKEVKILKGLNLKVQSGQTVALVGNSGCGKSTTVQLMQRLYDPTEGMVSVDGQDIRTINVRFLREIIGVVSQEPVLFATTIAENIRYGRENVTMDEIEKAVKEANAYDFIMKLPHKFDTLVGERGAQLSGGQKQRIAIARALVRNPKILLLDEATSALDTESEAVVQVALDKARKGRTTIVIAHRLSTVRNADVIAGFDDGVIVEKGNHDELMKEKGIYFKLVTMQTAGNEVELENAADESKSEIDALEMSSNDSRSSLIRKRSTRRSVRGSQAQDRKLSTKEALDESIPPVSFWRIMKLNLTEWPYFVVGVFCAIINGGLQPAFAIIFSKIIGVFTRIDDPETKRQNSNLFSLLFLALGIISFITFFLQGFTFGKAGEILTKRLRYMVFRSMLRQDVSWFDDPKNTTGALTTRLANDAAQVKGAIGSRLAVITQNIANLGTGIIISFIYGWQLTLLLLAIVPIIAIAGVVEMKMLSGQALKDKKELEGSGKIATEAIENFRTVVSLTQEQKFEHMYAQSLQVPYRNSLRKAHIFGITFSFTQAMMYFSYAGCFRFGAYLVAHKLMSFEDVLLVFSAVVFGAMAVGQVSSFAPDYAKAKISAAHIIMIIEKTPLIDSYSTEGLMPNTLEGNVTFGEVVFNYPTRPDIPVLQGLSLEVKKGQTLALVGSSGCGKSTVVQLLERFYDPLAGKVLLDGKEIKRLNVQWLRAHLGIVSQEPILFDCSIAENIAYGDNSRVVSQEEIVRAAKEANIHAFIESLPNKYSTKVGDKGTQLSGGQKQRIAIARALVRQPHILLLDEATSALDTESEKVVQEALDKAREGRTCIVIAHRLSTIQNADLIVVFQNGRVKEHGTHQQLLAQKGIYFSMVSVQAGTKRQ
# Method: as §5, §3, §4
# in vitro = conditions: human, Caco-2, pH 7.4
# Method: as §1, §2
# [11] = pH 5.5, read-out: IC50, OATP2B1, pH 5.5
# [12] = pH 7.4, read-out: IC50, OATP2B1, pH 7.4
SMILES,pIC50 (OATP2B1 [2]; [11]),pIC50 (OATP2B1 [2]; [12]),pKi (OATP2B1 [2]),effect on sulfasalazine permeability (P app) (Caco-2 cells [3]),pIC50 (MRP2 [4]),pIC50 (BCRP [5]),also measured
COc1cc(S(=O)(=O)[O-])c(C)cc1N=Nc1c(O)ccc2cc(S(=O)(=O)[O-])ccc12.[Na+].[Na+] [allura red AC],5.80,6.10,5.59,None of the selected food additives showed any effect,4.70,,effect on fexofenadine plasma levels (OATP2B1 inhibition) (OATP2B1 [1]): decreases fexofenadine plasma levels
CCN(Cc1cccc(S(=O)(=O)[O-])c1)c1ccc(C(=C2C=CC(=[N+](CC)Cc3cccc(S(=O)(=O)[O-])c3)C=C2)c2ccccc2S(=O)(=O)[O-])cc1.[Na+].[Na+] [brilliant blue FCF],4.74,,4.89,None of the selected food additives showed any effect,5.49,5.71,
O=S(=O)([O-])c1ccc(N=Nc2cc(S(=O)(=O)[O-])c3ccccc3c2O)c2ccccc12.[Na+].[Na+] [carmoisine],5.54,5.01,,None of the selected food additives showed any effect,4.54,5.27,sulfasalazine P app fold change (Caco-2 cells [3]; food additive 200 μM on both sides of the cell monolayer): ≤ 2
COc1ccc(CCC(=O)c2c(O)cc(O[C@@H]3O[C@H](CO)[C@@H](O)[C@H](O)[C@H]3O[C@@H]3O[C@@H](C)[C@H](O)[C@@H](O)[C@H]3O)cc2O)cc1O [neohesperidin DC],4.81,4.31,4.70,None of the selected food additives showed any effect,,6.07,P app in Caco-2 cells (Caco-2 cells [6]): < 6 × 10^–6 cm/s; oral bioavailability [7]: ~20%
CCCCCCCCOC(=O)c1cc(O)c(O)c(O)c1 [octyl gallate],,,,,4.72,5.00,inhibition at 50 μM (OATP2B1 [8]): ≥ 50%; inhibition of MRP2 substrate accumulation (MRP2 [9]): did not inhibit; inhibition at 50 μM (BCRP [10]): ≥ 50%; inhibition of P-gp substrate accumulation (P-gp): did not inhibit
"O=C(O)c1cc(/N=N/c2ccc(S(=O)(=O)Nc3ccccn3)cc2)ccc1O [sulfasalazine, reference compound]",,,,,,,"Papp A→B at 120 min, 500 μM (in vitro): ≤ 0.1 ×10⁻⁶ cm/s; Papp B→A at 120 min, 500 μM (in vitro): ~6.5 ×10⁻⁶ cm/s; efflux ratio at 120 min, 500 μM (in vitro): > 70"
